The source of these data is patent US20260250290A1 (BRISTOL-MYERS SQUIBB COMPANY, priority 2023, published 2026).

In this assay the target is T1, SGK1 (Homo sapiens, UniProt O00141).
T1 sequence (O00141 1-431): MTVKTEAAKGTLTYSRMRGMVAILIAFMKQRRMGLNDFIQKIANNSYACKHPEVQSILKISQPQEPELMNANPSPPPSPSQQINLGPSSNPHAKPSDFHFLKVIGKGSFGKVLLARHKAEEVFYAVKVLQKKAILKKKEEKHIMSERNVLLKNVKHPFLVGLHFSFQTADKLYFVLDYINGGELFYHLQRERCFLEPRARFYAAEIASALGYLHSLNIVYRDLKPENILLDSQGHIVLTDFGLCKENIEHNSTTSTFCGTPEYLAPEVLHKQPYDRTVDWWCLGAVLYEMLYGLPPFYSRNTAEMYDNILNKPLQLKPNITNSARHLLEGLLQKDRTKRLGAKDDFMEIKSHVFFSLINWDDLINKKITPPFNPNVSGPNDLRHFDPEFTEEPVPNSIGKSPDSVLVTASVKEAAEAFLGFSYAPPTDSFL
Briefly: SGK1 inhibition Assay B (Echo mass spectrometry of phosphorylated peptide product). The class given is biochemical. Particulars: 60 min at room temperature.

As usually defined, the IC50 is the concentration needed to halve the response being measured. A lower IC50 goes with greater potency. Turning to `CC(C)c1nc(O[C@@H]2C[C@H]3CC[C@@H](C2)N3C)c(C(=O)N[C@@H]2CCCN(c3cc(-c4ccc(=O)n(CC(F)F)c4)n4ncnc(N)c34)C2)s1` [Example 951, N—((R)-1-(4-Amino-7-(1-(2,2-difluoroethyl)-6-oxo-1,6-dihydropyridin-3-yl)pyrrolo[2,1-f][1,2,4]triazin-5-yl)piperidin-3-yl)-2-isopropyl-4-(((1R,3s,5S)-8-methyl-8-azabicyclo[3.2.1]octan-3-yl)oxy)thiazole-5-carboxamide], half-maximal inhibition (IC50) required 3 nM.
Take `Cc1nc(OC2CC3(CCN(C)CC3)C2)c(C(=O)N[C@@H]2CCCN(c3cc(-c4ccc(C#N)nc4)n4ncnc(N)c34)C2)s1` [Example 955, (R)—N-(1-(4-amino-7-(6-cyanopyridin-3-yl)pyrrolo[2,1-f][1,2,4]triazin-5-yl)piperidin-3-yl)-2-methyl-4-((7-methyl-7-azaspiro[3.5]nonan-2-yl)oxy)thiazole-5-carboxamide]: the 50% inhibitory concentration (IC50) came to 17 nM.
The same measure for `Cc1nc(O[C@@H]2C[C@H]3CC[C@@H](C2)N3C(C)C)c(C(=O)N[C@@H]2CCCN(c3cc(-c4ccc(C(N)=O)c(OCC(F)F)n4)n4ncnc(N)c34)C2)s1` [Example 956, N—((R)-1-(4-Amino-7-(5-carbamoyl-6-(2,2-difluoroethoxy)pyridin-2-yl)pyrrolo[2,1-f][1,2,4]triazin-5-yl)piperidin-3-yl)-4-(((1R,3s,5S)-8-isopropyl-8-azabicyclo[3.2.1]octan-3-yl)oxy)-2-methylthiazole-5-carboxamide]: 2 nM; for `CC(=O)N1CC=C(c2cc(N3CCC[C@@H](NC(=O)c4nc(OC5CCNCC5)c(C)s4)C3)c3c(N)ncnn23)C1` [Example 957, (R)—N-(1-(7-(1-acetyl-2,5-dihydro-1H-pyrrol-3-yl)-4-aminopyrrolo[2,1-f][1,2,4]triazin-5-yl)piperidin-3-yl)-5-methyl-4-(piperidin-4-yloxy)thiazole-2-carboxamide]: 0.6 nM; for `CC(=O)N1CC=C(c2cc(N3CCC[C@@H](NC(=O)c4sc(Cl)cc4OC4C[C@@H]5CN(C)C[C@@H]5C4)C3)c3c(N)ncnn23)C1` (stereo partly drawn) [Example 958, N—((R)-1-(7-(1-acetyl-2,5-dihydro-1H-pyrrol-3-yl)-4-aminopyrrolo[2,1-f][1,2,4]triazin-5-yl)piperidin-3-yl)-5-chloro-3-(((3aR,6aS)-2-methyloctahydrocyclopenta[c]pyrrol-5-yl)oxy) thiophene-2-carboxamide]: 2 nM.
The same measure for `CC(C)N1CC2CC(Oc3cc(Cl)sc3C(=O)N[C@@H]3CCCN(c4cc(-c5ccc(-n6cnnn6)nc5)n5ncnc(N)c45)C3)CC2C1` (stereo partly drawn) [Example 959, N—((R)-1-(7-(6-(1H-tetrazol-1-yl)pyridin-3-yl)-4-aminopyrrolo[2,1-f][1,2,4]triazin-5-yl)piperidin-3-yl)-5-chloro-3-(((3aR,6aS)-2-isopropyloctahydrocyclopenta[c]pyrrol-5-yl)oxy) thiophene-2-carboxamide]: 2 nM; for `Cc1nc(O[C@@H]2C[C@H]3CC[C@@H](C2)N3CCO)c(C(=O)N[C@@H]2CCCN(c3cc(-c4ccc(-n5cnnn5)c(F)c4)n4ncnc(N)c34)C2)s1` [Example 960, N—((R)-1-(4-amino-7-(3-fluoro-4-(1H-tetrazol-1-yl)phenyl)pyrrolo[2,1-f][1,2,4]triazin-5-yl)piperidin-3-yl)-4-(((1R,3s,5S)-8-(2-hydroxyethyl)-8-azabicyclo [3.2.1]octan-3-yl)oxy)-2-methylthiazole-5-carboxamide]: 1 nM.
`Cc1nc(O[C@@H]2C[C@H]3CC[C@@H](C2)N3C)c(C(=O)N[C@@H]2CCCN(c3cc(-c4ccc5c(c4)CNC5=O)n4ncnc(N)c34)C2)s1` [Example 961, N-((R)-1-(4-amino-7-(1-oxoisoindolin-5-y1)pyrrolo[2,1-f][1,2,4]triazin-5-y1)piperidin-3-y1)-2-methy1-4-(((IR,3s,5S)-8-methyl-8-azabicyclo[3.2.1]octan-3-yl)oxy)thiazole-5-carboxamide] came in with an IC50 of 5 nM.
Then `Cc1nc(O[C@@H]2C[C@H]3CC[C@@H](C2)N3C)c(C(=O)N[C@@H]2CCCN(c3cc(-c4ccc(-n5cnnn5)nc4)n4ncnc(N)c34)C2)s1` [Example 963, N-((R)-1-(7-(6-(1/-tetrazol-1-y1)pyridin-3-y1)-4-aminopyrrolo[2,1-1][1,2,4]triazin-5-y1)piperidin-3-y1)-2-methyl-4-(((IR,35,5S)-8-methy1-8-azabicyclo[3.2 1]octan-3-yl)oxy)thiazole-5-carboxamide], with 3 nM.
Then `CCN1C2CCC1CC(Oc1nc(C)sc1C(=O)NC1CCCN(c3cc(-c4ccc(C#N)nc4)n4ncnc(N)c34)C1)C2` [Example 964, N-((R)-1-(4-amino-7-(6-cyanopyridin-3-yl)pyrrolo[2,1-f][1,2,4]triazin-5-y1)piperidin-3-y1)-4-(((1R,3s,5S)-8-ethyl-8-azabicyclo[3.2.]]octan-3-y])oxy)-2-methylthiazole-5-carboxamide], with 46 nM; and `Cc1nc(OC2CC(C)(C)N(C)C(C)(C)C2)c(C(=O)N[C@@H]2CCCN(c3cc(-c4ccc(-n5cnnn5)c(F)c4)n4ncnc(N)c34)C2)s1` [Example 965, (R)—N-(1-(4-amino-7-(3-fluoro-4-(1H-tetrazol-1-yl)phenyl)pyrrolo[2,1-f][1,2,4]triazin-5-yl)piperidin-3-yl)-2-methyl-4-((1,2,2,6,6-pentamethylpiperidin-4-yl)oxy) thiazole-5-carboxamide], with 3 nM.
Then `Cc1nc(O[C@@H]2C[C@H]3CC[C@@H](C2)N3)c(C(=O)N[C@@H]2CCCN(c3cc(-c4ccc5c(c4)OCCNC5=O)n4ncnc(N)c34)C2)s1` [Example 966, 4-(((1R,3s,5S)-8-azabicyclo [3.2.1]octan-3-yl)oxy)-N—((R)-1-(4-amino-7-(5-oxo-2,3,4,5-tetrahydrobenzo[f][1,4]oxazepin-8-yl)pyrrolo[2,1-f][1,2,4]triazin-5-yl)piperidin-3-yl)-2-methylthiazole-5-carboxamide], with 8 nM; and `CC(C)N1[C@@H]2CCC[C@H]1C[C@H](Oc1cc(Cl)sc1C(=O)N[C@@H]1CCCN(c3cc(-c4cc(F)c(=O)n(CC(F)F)c4)n4ncnc(N)c34)C1)C2` [Example 968, N—((R)-1-(4-amino-7-(1-(2,2-difluoroethyl)-5-fluoro-6-oxo-1,6-dihydropyridin-3-yl)pyrrolo[2,1-f][1,2,4]triazin-5-yl)piperidin-3-yl)-5-chloro-3-(((1R,3s,5S)-9-isopropyl-9-azabicyclo[3.3.1]nonan-3-yl)oxy)thiophene-2-carboxamide], with 2 nM.
For `CC(C)S(=O)(=O)c1ccc(-c2cc(N3CCC[C@@H](NC(=O)c4sc(Cl)cc4O[C@@H]4C[C@H]5CC[C@@H](C4)N5C)C3)c3c(N)ncnn23)cn1` [Example 969, N-[(3R)-1-{4-amino-7-[6-(propane-2-sulfonyl)pyridin-3-yl]pyrrolo[2,1-f][1,2,4]triazin-5-yl}piperidin-3-yl]-5-chloro-3-{[(R,3R,5S)-8-methyl-8-azabicyclo[3.2.1]octan-3-yl]oxy}thiophene-2-carboxamide], the IC50 worked out at 4 nM.
